Patent US20260262643A1, “HERBICIDAL BENZOXAZINES” (FMC CORPORATION, priority 2022, published 2026)

Legend:
barnyardgrass [1] = assay: Test C preemergence; type: in vivo, Echinochloa crusgalli; details: 0 to 100 scale (0 no effect, 100 complete control); for Plant response rating, Barnyardgrass: Preemergence, 500 g ai/ha, visual rating after 10 days; for Barnyardgrass plant response rating: Test C, preemergence, 125 g ai/ha
How it was run: (§1)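 Pre: seeds in loam/sand, directed soil spray. Post: 1–2 leaf plants, 2–10 cm. Cmpd in non-phytotoxic solvent + surfactant. Greenhouse 10 d; visual rating vs untreated, 0 = none, 100 = complete control.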

blackgrass [2] = assay: Test C preemergence; type: in vivo, Alopecurus myosuroides; details: 0 to 100 scale (0 no effect, 100 complete control); for Plant response rating, Blackgrass: Preemergence, 500 g ai/ha, visual rating after 10 days; for Blackgrass plant response rating: Test C, preemergence, 125 g ai/ha
How it was run: as §1

corn [3] = assay: Test C preemergence; type: in vivo, Zea mays; details: 0 to 100 scale (0 no effect, 100 complete control); for Plant response rating, Corn: Preemergence, 500 g ai/ha, visual rating after 10 days; for Corn plant response rating: Test C, preemergence, 125 g ai/ha
How it was run: as §1

green foxtail [4] = assay: Test C preemergence; type: in vivo, Setaria viridis; details: 0 to 100 scale (0 no effect, 100 complete control); for Plant response rating, Foxtail, Green: Preemergence, 500 g ai/ha, visual rating after 10 days; for Foxtail, Green plant response rating: Test C, preemergence, 125 g ai/ha
How it was run: as §1

kochia [5] = assay: Test C preemergence; type: in vivo, Bassia scoparia; details: 0 to 100 scale (0 no effect, 100 complete control); for Plant response rating, Kochia: Preemergence, 500 g ai/ha, visual rating after 10 days; for Kochia plant response rating: Test C, preemergence, 125 g ai/ha
How it was run: as §1

oat, wild [6] = assay: Test C preemergence; type: in vivo, Avena fatua; details: 0 to 100 scale (0 no effect, 100 complete control); for Plant response rating, Oat, Wild: Preemergence, 500 g ai/ha, visual rating after 10 days; for Oat, Wild plant response rating: Test C, preemergence, 125 g ai/ha
How it was run: as §1

pigweed, palmer [7] = assay: Test C preemergence; type: in vivo, Amaranthus palmeri; details: 0 to 100 scale (0 no effect, 100 complete control); for Plant response rating, Pigweed, Palmer: Preemergence, 500 g ai/ha, visual rating after 10 days; for Pigweed, Palmer plant response rating: Test C, preemergence, 125 g ai/ha
How it was run: as §1

ragweed [8] = assay: Test C preemergence; type: in vivo, Ambrosia artemisiifolia; details: 0 to 100 scale (0 no effect, 100 complete control); for Plant response rating, Ragweed: Preemergence, 500 g ai/ha, visual rating after 10 days; for Ragweed plant response rating: Test C, preemergence, 125 g ai/ha
How it was run: as §1

ryegrass, Italian [9] = assay: Test C preemergence; type: in vivo, Lolium multiflorum; details: 0 to 100 scale (0 no effect, 100 complete control); for Plant response rating, Ryegrass, Italian: Preemergence, 500 g ai/ha, visual rating after 10 days; for Ryegrass, Italian plant response rating: Test C, preemergence, 125 g ai/ha
How it was run: as §1

soybean [10] = assay: Test C preemergence; type: in vivo, Glycine max; details: 0 to 100 scale (0 no effect, 100 complete control); for Plant response rating, Soybean: Preemergence, 500 g ai/ha, visual rating after 10 days; for Soybean plant response rating: Test C, preemergence, 125 g ai/ha
How it was run: as §1

wheat [11] = assay: Test C preemergence; type: in vivo, Triticum aestivum; details: 0 to 100 scale (0 no effect, 100 complete control); for Plant response rating, Wheat: Preemergence, 500 g ai/ha, visual rating after 10 days; for Wheat plant response rating: Test C, preemergence, 125 g ai/ha
How it was run: as §1

barnyardgrass [12] = assay: Test C postemergence; type: in vivo, Echinochloa crusgalli; details: 10 days
How it was run: as §1

blackgrass [13] = assay: Test C postemergence; type: in vivo, Alopecurus myosuroides; details: 10 days
How it was run: as §1

corn [14] = assay: Test C postemergence; type: in vivo, Zea mays; details: 10 days
How it was run: as §1

green foxtail [15] = assay: Test C postemergence; type: in vivo, Setaria viridis; details: 10 days
How it was run: as §1

kochia [16] = assay: Test C postemergence; type: in vivo, Bassia scoparia; details: 10 days
How it was run: as §1

oat, wild [17] = assay: Test C postemergence; type: in vivo, Avena fatua; details: 10 days
How it was run: as §1

pigweed, palmer [18] = assay: Test C postemergence; type: in vivo, Amaranthus palmeri; details: 10 days
How it was run: as §1

ragweed [19] = assay: Test C postemergence; type: in vivo, Ambrosia artemisiifolia; details: 10 days
How it was run: as §1

ryegrass, Italian [20] = assay: Test C postemergence; type: in vivo, Lolium multiflorum; details: 10 days
How it was run: as §1

soybean [21] = assay: Test C postemergence; type: in vivo, Glycine max; details: 10 days
How it was run: as §1

wheat [22] = assay: Test C postemergence; type: in vivo, Triticum aestivum; details: 10 days
How it was run: as §1

galium = assay: Test C postemergence; type: in vivo, Galium aparine; details: 10 days
How it was run: as §1

horseweed = assay: Test C postemergence; type: in vivo, Erigeron canadensis; details: 10 days
How it was run: as §1

barnyardgrass [23] = assay: Test D flooded paddy test; type: in vivo, Echinochloa crus-galli; details: 250 g ai/ha, applied to paddy water, visual rating after 13 to 14 days, scale 0 to 100 (0 no effect, 100 complete control)
How it was run: (§2)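 Plants grown to the 2-leaf stage; pots flooded to 3 cm above soil at treatment and held at that depth throughout. Test compounds applied directly to the paddy water. After 13 to 14 days in a greenhouse, response was rated visually versus controls on a 0 (no effect) to 100 (complete control) scale.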

ducksalad = assay: Test D flooded paddy test; type: in vivo, Heteranthera limosa; details: 250 g ai/ha, applied to paddy water, visual rating after 13 to 14 days, scale 0 to 100 (0 no effect, 100 complete control)
How it was run: as §2

rice = assay: Test D flooded paddy test; type: in vivo, Oryza sativa; details: 250 g ai/ha, applied to paddy water, visual rating after 13 to 14 days, scale 0 to 100 (0 no effect, 100 complete control)
How it was run: as §2

sedge, umbrella = assay: Test D flooded paddy test; type: in vivo, Cyperus difformis; details: 250 g ai/ha, applied to paddy water, visual rating after 13 to 14 days, scale 0 to 100 (0 no effect, 100 complete control)
How it was run: as §2

[24] = 125 g ai/ha, postemergence, 0 to 100 scale, 0 no effect, 100 complete control
[25] = Postemergence, 500 g ai/ha, visual 0 to 100 scale (0 no effect, 100 complete control)

Cc1ccc(-n2cnc(C(C)(C)C)n2)cc1C(=O)N1CC(C(F)(F)F)Oc2c(Cl)cccc21 (single isomer, unassigned) [Compound 192]
Plant response rating, Barnyardgrass (barnyardgrass [1]): 90 | Barnyardgrass plant response rating (barnyardgrass [1]): 60 | Plant response rating, Blackgrass (blackgrass [2]): 80 | Blackgrass plant response rating (blackgrass [2]): 70 | Plant response rating, Corn (corn [3]): 20 | Corn plant response rating (corn [3]): 20 | Plant response rating, Foxtail, Green (green foxtail [4]): 100 | Foxtail, Green plant response rating (green foxtail [4]): 100 | Plant response rating, Kochia (kochia [5]): 100 | Kochia plant response rating (kochia [5]): 60 | Plant response rating, Oat, Wild (oat, wild [6]): 90 | Oat, Wild plant response rating (oat, wild [6]): 40 | Plant response rating, Pigweed, Palmer (pigweed, palmer [7]): 100 | Pigweed, Palmer plant response rating (pigweed, palmer [7]): 90 | Plant response rating, Ragweed (ragweed [8]): 80 | Ragweed plant response rating (ragweed [8]): 10 | Plant response rating, Ryegrass, Italian (ryegrass, Italian [9]): 90 | Ryegrass, Italian plant response rating (ryegrass, Italian [9]): 90 | Plant response rating, Soybean (soybean [10]): 90 | Soybean plant response rating (soybean [10]): 30 | Plant response rating, Wheat (wheat [11]): 30 | Wheat plant response rating (wheat [11]): 0 | Plant response rating, Barnyardgrass (barnyardgrass [12]; [24]): 20 | Plant response rating, Barnyardgrass (barnyardgrass [12]; [25]): 50 | Plant response rating, Blackgrass (blackgrass [13]; [24]): 30 | Plant response rating, Blackgrass (blackgrass [13]; [25]): 30 | Plant response rating, Corn (corn [14]; [24]): 10 | Plant response rating, Corn (corn [14]; [25]): 20 | Plant response rating, Foxtail, Green (green foxtail [15]; [24]): 10 | Plant response rating, Foxtail, Green (green foxtail [15]; [25]): 80 | Plant response rating, Kochia (kochia [16]; [24]): 80 | Plant response rating, Kochia (kochia [16]; [25]): 100 | Plant response rating, Oat, Wild (oat, wild [17]; [24]): 20 | Plant response rating, Oat, Wild (oat, wild [17]; [25]): 50 | Plant response rating, Pigweed, Palmer (pigweed, palmer [18]; [24]): 90 | Plant response rating, Pigweed, Palmer (pigweed, palmer [18]; [25]): 100 | Plant response rating, Ragweed (ragweed [19]; [24]): 90 | Plant response rating, Ragweed (ragweed [19]; [25]): 100 | Plant response rating, Ryegrass, Italian (ryegrass, Italian [20]; [24]): 40 | Plant response rating, Ryegrass, Italian (ryegrass, Italian [20]; [25]): 50 | Plant response rating, Soybean (soybean [21]; [24]): 100 | Plant response rating, Soybean (soybean [21]; [25]): 100 | Plant response rating, Wheat (wheat [22]; [24]): 20 | Plant response rating, Wheat (wheat [22]; [25]): 20 | Plant response rating, Galium (galium; [24]): 100 | Plant response rating, Galium (galium; [25]): 100 | Plant response rating, Horseweed (horseweed; [24]): 0 | Plant response rating, Horseweed (horseweed; [25]): 30 | Plant response rating, Barnyardgrass (Flood) (barnyardgrass [23]): 0 | Plant response rating, Ducksalad (Flood) (ducksalad): 0 | Plant response rating, Rice (Flood) (rice): 0 | Plant response rating, Sedge, Umbrella (Flood) (sedge, umbrella): 0

COc1ccc(-n2cnc(C(C)C)n2)cc1C(=O)N1C[C@H](C)Oc2c(C)cccc21 [Compound 210]
Plant response rating, Barnyardgrass (barnyardgrass [1]): 100 | Barnyardgrass plant response rating (barnyardgrass [1]): 100 | Plant response rating, Blackgrass (blackgrass [2]): 100 | Blackgrass plant response rating (blackgrass [2]): 80 | Plant response rating, Corn (corn [3]): 60 | Corn plant response rating (corn [3]): 30 | Plant response rating, Foxtail, Green (green foxtail [4]): 100 | Foxtail, Green plant response rating (green foxtail [4]): 100 | Plant response rating, Kochia (kochia [5]): 100 | Kochia plant response rating (kochia [5]): 90 | Plant response rating, Oat, Wild (oat, wild [6]): 90 | Oat, Wild plant response rating (oat, wild [6]): 60 | Plant response rating, Pigweed, Palmer (pigweed, palmer [7]): 100 | Pigweed, Palmer plant response rating (pigweed, palmer [7]): 100 | Plant response rating, Ragweed (ragweed [8]): 80 | Ragweed plant response rating (ragweed [8]): 30 | Plant response rating, Ryegrass, Italian (ryegrass, Italian [9]): 100 | Ryegrass, Italian plant response rating (ryegrass, Italian [9]): 100 | Plant response rating, Soybean (soybean [10]): 100 | Soybean plant response rating (soybean [10]): 90 | Plant response rating, Wheat (wheat [11]): 90 | Wheat plant response rating (wheat [11]): 90 | Plant response rating, Barnyardgrass (barnyardgrass [12]; [24]): 50 | Plant response rating, Barnyardgrass (barnyardgrass [12]; [25]): 100 | Plant response rating, Blackgrass (blackgrass [13]; [24]): 90 | Plant response rating, Blackgrass (blackgrass [13]; [25]): 90 | Plant response rating, Corn (corn [14]; [24]): 80 | Plant response rating, Corn (corn [14]; [25]): 90 | Plant response rating, Foxtail, Green (green foxtail [15]; [24]): 90 | Plant response rating, Foxtail, Green (green foxtail [15]; [25]): 90 | Plant response rating, Kochia (kochia [16]; [24]): 70 | Plant response rating, Kochia (kochia [16]; [25]): 90 | Plant response rating, Oat, Wild (oat, wild [17]; [24]): 80 | Plant response rating, Oat, Wild (oat, wild [17]; [25]): 80 | Plant response rating, Pigweed, Palmer (pigweed, palmer [18]; [24]): 90 | Plant response rating, Pigweed, Palmer (pigweed, palmer [18]; [25]): 100 | Plant response rating, Ragweed (ragweed [19]; [24]): 60 | Plant response rating, Ragweed (ragweed [19]; [25]): 80 | Plant response rating, Ryegrass, Italian (ryegrass, Italian [20]; [24]): 60 | Plant response rating, Ryegrass, Italian (ryegrass, Italian [20]; [25]): 90 | Plant response rating, Soybean (soybean [21]; [24]): 0 | Plant response rating, Soybean (soybean [21]; [25]): 10 | Plant response rating, Wheat (wheat [22]; [24]): 50 | Plant response rating, Wheat (wheat [22]; [25]): 90 | Plant response rating, Galium (galium; [24]): 100 | Plant response rating, Galium (galium; [25]): 100 | Plant response rating, Horseweed (horseweed; [24]): 80 | Plant response rating, Horseweed (horseweed; [25]): 80 | Plant response rating, Barnyardgrass (Flood) (barnyardgrass [23]): 20 | Plant response rating, Ducksalad (Flood) (ducksalad): 85 | Plant response rating, Rice (Flood) (rice): 15 | Plant response rating, Sedge, Umbrella (Flood) (sedge, umbrella): 100
